Literature values in US20180369425A1, “LINKED AND OTHER pH-TRIGGERED COMPOUNDS” (priority 2017, published 2018).

Columns and labels:
[1] = solvents listed; cited from earlier work
HeLa cells = settings: two hours, up to 2 μM; cited from earlier work

Molecule	Solubility [1]	cell death with amanitin alone (HeLa cells)
C#CCNC(=O)CCCCC[N+]1=C(/C=C/C=C/C=C/C=C2\N(CCCCS(=O)(=O)[O-])c3ccc4ccccc4c3C2(C)C)C(C)(C)c2c1ccc1ccccc21 [ICG-alkyne]	DMSO, DMF, Acetonitrile, Methanol	
amanitin		does not induce cell death
